pIC50: −log10 of the molar value. Where two headings read alike, the source gives them in different places.

For this assay, the target named is glucocorticoid receptor (GAL4 DBD-GR) (Homo sapiens (Human), UniProt P04150). Briefly: GR cell-based assays (GRE agonist / GRE antagonist), CHO-Gal4/GR luciferase reporter. The text has this:
Potential selective glucocorticoid receptor modulators of this intervention can be tested for modulation of the activity of the glucocorticoid receptor using cell-based assays. These assays involve a Chinese hamster ovary (CHO) cell line which contains fragments of the glucocorticoid receptor as well as fusion proteins. The glucocorticoid receptor fragments used are capable of binding the ligand (e.g. beclomethasone) to identify molecules that compete for binding with glucocorticoid receptor ligands. In more detail, the glucocorticoid receptor ligand binding domain is fused to the DNA binding domain (DBD) of the transcription factor GAL4 (GAL4 DBD-GR) and is stably integrated into a CHO cell line containing a GAL4-UAS-Luciferase reporter construct. […] After cell lysis the luminescence that is produced by luciferase after addition of the substrate is detected and EC50 or IC50 values can be calcuated. Engagement of molecules which induce gene expression via glucocortocoid receptor binding to the DNA leads to expression of the luciferase gene under the control of the fusion protein GAL4 DBD-GR and therefore to a dose-dependent increase of the luminescence signal. Binding of molecules which repress beclomethasone-induced gene expression of the luciferase gene under the control of the fusion protein GAL4 DBD-GR leads to a dose-dependent reduction of the luminescence signal.
The reporter cell line CHO-Gal4/GR consisted of a chinese hamster ovary (CHO) cell line (Leibniz Institute DSMZ—German Collection of Microorganisms and Cell Cultures GmbH: ACC-110) containing a firefly luciferase gene under the control of the GR ligand binding domain fused to the DNA binding domain (DBD) of GAL4 (GAL4 DBD-GR) stably integrated into CHO cells. This cell line was established by stable transfection of CHO cells with a GAL4-UAS-Luciferase reporter construct. In a subsequent step the ligand binding domain of the GR cloned into pIRES2-EGFP-GAL4 containing the DNA binding domain of GAL4 from pFA-AT2 was transfected. This fusion construct activated firefly luciferase expression under the control of a multimerized GAL4 upstream activation sequence (UAS). The signal of the emitted luminescence was recorded by the FLIPR^TETRA. This allowed for specific detection of ligand-induced activation of the GR and therefore for the identification of compounds with agonistic properties. The GAL4/UAS reporter was premixed with a vector that constitutively expressed Renilla luciferase, which served as an internal positive control for transfection efficiency.
The complete culture medium for the assay was: • DMEM F-12 (1:1) MIXTURE (LONZA cat. No: BE04-687F/U1) 500 mL • 5 mL of 100 mM Sodium Pyruvate (LONZA cat. No: BE12-115E) • 25 mL of 7.5% Sodium Bicarbonate (LONZA cat. No BE17-613E) • 6.5 mL of 1 M Hepes (LONZA cat. No: BE17-737E) • 5 mL of 100× Penicillin/Streptomycin (LONZA cat. No DE17-602E) • 50 mL of Fetal Bovine Serum (Euroclone cat. No ECS 0180L) • 0.25 mL of 10 mg/mL Puromycin (InvivoGen cat.: ant-pr-1) • 0.5 mL of 100 mg/mL Zeocin (InvivoGen cat.: ant-zn-1)
Cryo-preserved CHO-Gal4/GR cells were suspended in complete medium and 5000 cells/25 μl/well were seeded into the wells of 384-well polystyrene assay plates (Thermo Scientific, cat. #4332) and cultured at 37° C., 5% CO2 and 95% humidity. After 24 hours growth medium was carefully removed and replaced by 30 μl Opti-MEM (GIBCO, cat. #31985062) as assay buffer. To test the compounds an 8-point half-log compound dilution curve was generated in 100% DMSO starting from a 2 mM stock and compounds were then diluted 1:50 in Opti-MEM. 10 μl of compounds were then added to the wells containing 30 μl Opti-MEM resulting in a final assay concentration range from 10 μM to 0.003 μM in 0.5% DMSO. Compounds were tested at 8 concentrations in quadruplicate data points. […] Finally, cells were lysed with 20 μl of Triton/Luciferin solution and the signal of the emitted luminescence was recorded at the FLIPR^TETRA for 2 minutes. […]

Where [1] appears, read: CHO-Gal4/GR reporter cells, agonist mode (EC50) or antagonist mode against beclometasone (IC50), 6 hour incubation.

Sequence of glucocorticoid receptor (GAL4 DBD-GR) (P04150 524-758): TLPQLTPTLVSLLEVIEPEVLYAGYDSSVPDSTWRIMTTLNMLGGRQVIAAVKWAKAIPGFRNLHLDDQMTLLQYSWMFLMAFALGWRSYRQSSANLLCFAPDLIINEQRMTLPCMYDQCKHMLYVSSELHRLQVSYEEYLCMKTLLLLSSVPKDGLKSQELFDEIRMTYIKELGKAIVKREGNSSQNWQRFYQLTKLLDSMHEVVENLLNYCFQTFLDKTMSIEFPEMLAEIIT

The term pIC50 denotes the IC50 on a negative log10 scale, so that one unit is a factor of ten. As for `C[C@]1(F)C(=O)N(c2ccc3c(cnn3-c3ccc(F)cc3)c2)[C@H](c2ccccc2)[C@H]1NC(=O)C1CC1` (racemic) [Example 128, N-[rac-(2R,3R,4R)-4-Fluoro-1-[1-(4-fluorophenyl)-1H-indazol-5-yl]-4-methyl-5-oxo-2-phenyl-pyrrolidin-3-yl]-cyclopropanecarboxylic acid amide], the negative-log IC50 (pIC50) (read-out: IC50 or EC50) was 6.00 to 7.00.
The same measure, in the same setting: in the case of `CC[C@@H]1C(=O)N(c2ccc3c(cnn3-c3ccc(F)cc3)c2)[C@H](c2ccccc2)[C@H]1NC(=O)C1CC1` (racemic) [Example 126, N-[rac-(2R,3S,4S)-4-Ethyl-1-[1-(4-fluorophenyl)-1H-indazol-5-yl]-5-oxo-2-phenyl-pyrrolidin-3-yl]-cyclopropanecarboxylic acid amide] it was greater than 7.00.
For the molecule `CC1C(=O)N(c2ccc3c(cnn3-c3ccc(F)cc3)c2)C(c2ccccc2Cl)C1NC(=O)c1ccn(C)n1` (racemic) [Example 94, N-[rac-(2R,3S,4R)-2-(2-Chlorophenyl)-1-[1-(4-fluorophenyl)-1H-indazol-5-yl]-4-methyl-5-oxo-pyrrolidin-3-yl]-1-methyl-1H-pyrazole-3-carboxylic acid amide], where the note is “read-out: IC50 or EC50”, the pIC50 was greater than 7.00.
On the same count and under the same terms, in the case of `Cc1cccc([C@@H]2[C@@H](NC(=O)c3cccnc3)[C@@H](C)C(=O)N2c2ccc3c(cnn3-c3ccc(F)cc3)c2)c1` (racemic) [Example 73, N-[rac-(2R,3S,4R)-1-[1-(4-Fluorophenyl)-1H-indazol-5-yl]-4-methyl-2-m-tolyl-5-oxo-pyrrolidin-3-yl]-pyridine-3-carboxylic acid amide] it was greater than 7.00.
In the case of `O=C(N[C@H]1[C@H](F)C(=O)N(c2ccc3c(cnn3-c3ccc(F)cc3)c2)[C@@H]1c1ccccc1)C1CC1` [Example 95, N-((2R,3R,4S)-4-fluoro-1-(1-(4-fluorophenyl)-1H-indazol-5-yl)-5-oxo-2-phenylpyrrolidin-3-yl)cyclopropanecarboxamide], the pIC50 under setting [1] was greater than 7.00.
As to `C[C@@H]1C(=O)N(c2ccc3c(cnn3-c3ccc(F)cc3)c2)[C@H](c2ccccc2Cl)[C@H]1NC(=O)C1CC1` (racemic) [Example 112, N-[rac-(2R,3S,4S)-2-(2-Chlorophenyl)-1-[1-(4-fluorophenyl)-1H-indazol-5-yl]-4-methyl-5-oxo-pyrrolidin-3-yl]-cyclopropanecarboxylic acid amide], the pIC50 (read-out: IC50 or EC50) was 6.00 to 7.00.
Still for that read-out and setting: in the case of `Cc1ncc(C(=O)N[C@H]2[C@H](c3ccccc3)N(c3ccc4c(cnn4-c4ccc(F)cc4)c3)C(=O)C2(C)C)o1` [Example 44b, N-((2S,3R)-1-(1-(4-fluorophenyl)-1H-indazol-5-yl)-4,4-dimethyl-5-oxo-2-phenylpyrrolidin-3-yl)-2-methyloxazole-5-carboxamide] it was 6.00 to 7.00.
For `CC1(C)C(=O)N(c2ccc3c(cnn3-c3ccc(F)cc3)c2)[C@H](c2ccccc2)[C@H]1NS(C)(=O)=O` [Example 34a, N-((2R,3S)-1-(1-(4-fluorophenyl)-1H-indazol-5-yl)-4,4-dimethyl-5-oxo-2-phenylpyrrolidin-3-yl)methanesulfonamide], the pIC50 (read-out: IC50 or EC50) is greater than 7.00.
Still for that read-out and setting: in the case of `Cc1cccc([C@@H]2[C@@H](NC(=O)c3ccn(C)n3)[C@@H](C)C(=O)N2c2ccc3c(cnn3-c3ccc(F)cc3)c2)c1` (racemic) [Example 72, N-[rac-(2R,3S,4R)-1-[1-(4-Fluorophenyl)-1H-indazol-5-yl]-4-methyl-2-m-tolyl-5-oxo-pyrrolidin-3-yl]-1-methyl-1H-pyrazole-3-carboxylic acid amide] it was greater than 7.00; in that of `O=C(N[C@@H]1[C@@H](c2ccccc2)N(c2ccc3c(cnn3-c3ccc(F)cc3)n2)C(=O)C12CC2)C1CC1` (racemic) [Example 33, N-[rac-((6R,7S)-5-(1-(4-fluorophenyl)-1H-pyrazolo[4,3-b]pyridin-5-yl)-4-oxo-6-phenyl-5-azaspiro[2.4]heptan-7-yl)]cyclopropanecarboxamide], 4.82 to 6.00; in that of `COc1ccc([C@@H]2[C@@H](NC(=O)C(C)(F)F)[C@H](C)C(=O)N2c2ccc3c(cnn3-c3ccc(F)cc3)c2)cc1` (racemic) [Example 98, 2,2-Difluoro-N-[rac-(2R,3S,4S)-1-[1-(4-fluorophenyl)-1H-indazol-5-yl]-2-(4-methoxyphenyl)-4-methyl-5-oxo-pyrrolidin-3-yl]-propionamide], greater than 7.00.
`Cc1ncc(C(=O)N[C@@H]2[C@@H](c3ccccc3)N(c3ccc4c(cnn4-c4ccc(F)cc4)c3)C(=O)C2(C)C)o1` [Example 44a, N-((2R,3S)-1-(1-(4-fluorophenyl)-1H-indazol-5-yl)-4,4-dimethyl-5-oxo-2-phenylpyrrolidin-3-yl)-2-methyloxazole-5-carboxamide]: the pIC50 under setting [1] is greater than 7.00.
As to `C[C@@]1(CC(F)F)C(=O)N(c2ccc3c(cnn3-c3ccc(F)cc3)c2)[C@H](c2ccccc2)[C@H]1NC(=O)C1CC1` (racemic) [Example 148, N-(rac-(2R,3S,4S)-4-(2,2-difluoroethyl)-1-(1-(4-fluorophenyl)-1H-indazol-5-yl)-4-methyl-5-oxo-2-phenylpyrrolidin-3-yl)cyclopropanecarboxamide], the pIC50 (read-out: IC50 or EC50) was greater than 7.00.
Same read-out and setting: next, `C[C@@H]1C(=O)N(c2ccc3c(cnn3-c3ccc(F)cc3)c2)[C@H](c2ccccc2)[C@H]1NC(=O)C1CC1` (racemic) [Example 46, N-[rac-(2R,3S,4S)-1-[1-(4-Fluorophenyl)-1H-indazol-5-yl]-4-methyl-5-oxo-2-phenyl-pyrrolidin-3-yl]-cyclopropanecarboxylic acid amide]: greater than 7.00; `C[C@@H]1C(=O)N(c2ccc3c(cnn3-c3ccc(F)cc3)c2)[C@H](c2ccc(Cl)s2)[C@H]1NC(=O)c1ncccn1` (racemic) [Example 109, N-[rac-(2S,3S,4S)-2-(5-Chloro-thiophen-2-yl)-1-[1-(4-fluorophenyl)-1H-indazol-5-yl]-4-methyl-5-oxo-pyrrolidin-3-yl]-pyrimidine-2-carboxylic acid amide]: greater than 7.00; `Cc1cccc([C@@H]2[C@@H](NS(C)(=O)=O)[C@H](C)C(=O)N2c2ccc3c(cnn3-c3ccc(F)cc3)c2)c1` (racemic) [Example 62, N-[rac-(2R,3S,4S)-1-[1-(4-Fluorophenyl)-1H-indazol-5-yl]-4-methyl-2-m-tolyl-5-oxo-pyrrolidin-3-yl]-methanesulfonic acid amide]: 6.00 to 7.00.
For `Cn1cc(C[C@H]2C(=O)N(c3ccc4c(cnn4-c4ccc(F)cc4)c3)[C@H](c3ccccc3)[C@H]2NC(=O)C2CC2)cn1` [Example 139b, N-((2R,3S,4R)-1-(1-(4-fluorophenyl)-1H-indazol-5-yl)-4-((1-methyl-1H-pyrazol-4-yl)methyl)-5-oxo-2-phenylpyrrolidin-3-yl)cyclopropanecarboxamide], the pIC50 (read-out: IC50 or EC50) is 4.82 to 6.00.
Molecule `O=C(N[C@@H]1[C@@H](c2ccccc2)N(c2ccc3c(cnn3-c3ccc(F)cc3)c2)C(=O)[C@@H]1CC(F)F)C1CC1` [Example 132, N-((2R,3S,4R)-4-(2,2-difluoroethyl)-1-(1-(4-fluorophenyl)-1H-indazol-5-yl)-5-oxo-2-phenylpyrrolidin-3-yl)cyclopropanecarboxamide] gave a pIC50 under setting [1] greater than 7.00.
On to `Cc1cccc([C@@H]2[C@@H](NC(=O)c3cccnc3)[C@H](C)C(=O)N2c2ccc3c(cnn3-c3ccc(F)cc3)c2)c1` (racemic) [Example 68, N-[rac-(2R,3S,4S)-1-[1-(4-Fluorophenyl)-1H-indazol-5-yl]-4-methyl-2-m-tolyl-5-oxo-pyrrolidin-3-yl]-pyridine-3-carboxylic acid amide], for which the pIC50 (read-out: IC50 or EC50) was 6.00 to 7.00.
